Assay results from publication PMC11007962, “First-in-human study of GFH018, a small molecule inhibitor of transforming growth factor-β receptor I inhibitor, in patients with advanced solid tumors” (BMC Cancer, 2024).

Test system: patients with advanced solid tumors
[1] = 85 mg BID 14d-on/14d-off (N = 12)

Procedure: The study consisted of a dose-escalation part followed by an expansion part. In the dose escalation part, a 3-day pharmacokinetic (PK) lead-in period was conducted for a single dose in the first treatment cycle. Patients received GFH018 once on cycle 1 day 1 (C1D1) and underwent serial PK testing over the first 3 days. On C1D4, patients were administered the corresponding dose of GFH018 BID 14 days on/14 days off. The first cycle was defined as 31 days, including 3-day PK leading-in period with GFH018 single dosing and then 14d-on/14d-off dosing schedule. The subsequent cycles were 28 days. The starting dose of GFH018 was 5 mg, with eight planned dose levels up to 85 mg (5, 10, 20, 30, 40, 50, 65, and 85 mg). A modified 3+3 design was used to determine the maximum tolerance dose (MTD) and RDE, guided by safety/tolerability and PK data. Dose-limiting toxicities (DLTs) were evaluated during the first cycle at each dose level. The safety of 85 mg BID, 7 d-on/7 d-off, was explored after confirming the safety of 14 d-on/14 d-off. The DLTs were defined as hematological toxicities, including G4 neutropenia lasting for more than 5 days, G3 febrile neutropenia, G4 anemia, G4 thrombocytopenia, or G3 thrombocytopenia accompanied by bleeding, and ≥ G3 nonhematological toxicity (except for diarrhea, nausea, vomiting, and rash recovering ≤ G2 after supportive treatment within 3 days). The DLTs for cardiac toxicities included ≥ G2 cardiac valve abnormalities, ≥ G2 left ventricular ejection fraction (LVEF) decrease, any cardiovascular impairment shown in imaging, and abnormal highly sensitive troponin (hs-Tn) increased to ≥ twice the baseline in two consecutive tests with an interval ≥ 3 days. In the expansion part, patients were orally administered GFH018 RDE twice daily to further evaluate the safety of RDE and other dose regimens. […] The treatment cycle lasted 28 days.
All enrolled patients were monitored regularly after GFH018 administration. Safety assessments included adverse events (AEs), serious AEs (SAEs), laboratory assessments, vital signs, physical examinations, electrocardiography and echocardiography. AEs were graded according to the NCI Common Terminology Criteria for Adverse Events (NCI-CTCAE) v5.0. All AEs were followed up until they were stable or had recovered to baseline. Adverse events of special interest (AESIs) were predefined as echocardiographic abnormalities such as aggravated stenosis or regurgitation of the heart valves, clinically significant decreases in LVEF, brain natriuretic peptide (BNP) or N-terminal pro-brain natriuretic peptide (NT-proBNP) increases, and hs-Tn increases judged by investigators.
For the safety and efficacy analyses, data from patients who received GFH018 at the same dose in the dose-escalation and expansion cohorts were pooled. The demographic and baseline characteristics were summarized using descriptive methods. Safety and efficacy data were summarized for all patients who received at least one dose of GFH018. The ORR and DCR were summarized by cohort and overall. When the sample size of the analyzed group was ten or more, the Kaplan–Meier method was used to estimate the median PFS and TTP. In this study, treatment-emergent AEs (TEAEs) were defined as AEs that occurred on or after the first dosing date of GFH018 and no later than 30 days after the last dose of GFH018. The incidence and severity of AEs were descriptively summarized according to dose level. The PK parameters of GFH018 were calculated using noncompartmental analysis methods. All plasma PK data were summarized by cohort and visit day or time using descriptive statistics.

Cc1cccc(-c2nn3c(c2-c2ccc4ncnn4c2/C=C/C(N)=O)CCC3)n1 [GFH018]
2 (16.7%) n (%): TEAE: ALP increased [1] | TEAE: Abdominal distention [1] | TEAE: Asthenia [1] | TEAE: Constipation [1] | TEAE: LDH increased [1] | TEAE: LDH increased, any grade (Table S3) [1] | TEAE: LDH increased, maximal CTCAE grade G1 [1] | TEAE: Proteinuria [1]
2 (33.3%) n (%): TRAE: Lymphocyte count decreased (85 mg BID 7d-on/7d-off (N = 6))
12 (100%) n (%): At least one TEAE [1] | At least one TEAE (Table S3) [1]
4 (33.3%) n (%): TEAE: AST increased [1] | TEAE: AST increased, any grade (Table S3) [1] | TEAE: Abdominal pain [1] | TEAE: GGT increased [1] | TEAE: GGT increased, any grade (Table S3) [1] | TEAE: Lymphocyte count decreased [1]
1 (16.7%) n (%): TRAE: Protein urine present (85 mg BID 7d-on/7d-off (N = 6))
2 (33.3) n (%): Treatment-emergent Proteinuria (grouped PTs), G1 (85 mg BID 7d-on/7d-off (N = 6)) | Treatment-emergent Proteinuria (grouped PTs: proteinuria and urine protein present), any grade (85 mg BID 7d-on/7d-off (N = 6))
3 (25.0%) n (%): TEAE: ALT increased [1] | TEAE: ALT increased, any grade (Table S3) [1] | TEAE: ALT increased, maximal CTCAE grade G1 [1] | TEAE: AST increased, maximal CTCAE grade G1 [1] | TEAE: Anemia [1] | TEAE: Bilirubin conjugated increased [1] | TEAE: C-reactive protein increased [1] | TEAE: C-reactive protein increased, any grade (Table S3) [1] | TEAE: C-reactive protein increased, maximal CTCAE grade G1 [1] | TEAE: GGT increased, maximal CTCAE grade G1 [1] | TEAE: Hypoalbuminemia [1]
0 n (%): TRAE: LDH increased (85 mg BID 7d-on/7d-off (N = 6)) | TRAE: Proteinuria (85 mg BID 7d-on/7d-off (N = 6)) | Treatment-emergent Proteinuria (grouped PTs), G2 (85 mg BID 7d-on/7d-off (N = 6)) | Treatment-emergent Proteinuria (grouped PTs), G3 (85 mg BID 7d-on/7d-off (N = 6)) | TEAE: ALT increased, maximal CTCAE grade G2 [1] | TEAE: ALT increased, maximal CTCAE grade G3 [1] | TEAE: ALT increased, maximal CTCAE grade G4 [1] | TEAE: ALT increased, maximal CTCAE grade G5 [1] | TEAE: AST increased, maximal CTCAE grade G3 [1] | TEAE: AST increased, maximal CTCAE grade G4 [1] | TEAE: AST increased, maximal CTCAE grade G5 [1] | TEAE: Blood bilirubin increased [1] | TEAE: C-reactive protein increased, maximal CTCAE grade G2 [1] | TEAE: C-reactive protein increased, maximal CTCAE grade G3 [1] | TEAE: C-reactive protein increased, maximal CTCAE grade G4 [1] | TEAE: C-reactive protein increased, maximal CTCAE grade G5 [1] | TEAE: Decreased appetite [1] | TEAE: Decreased appetite, any grade (Table S3) [1] | TEAE: Decreased appetite, maximal CTCAE grade G1 [1] | TEAE: Decreased appetite, maximal CTCAE grade G2 [1] | TEAE: Decreased appetite, maximal CTCAE grade G3 [1] | TEAE: Decreased appetite, maximal CTCAE grade G4 [1] | TEAE: Decreased appetite, maximal CTCAE grade G5 [1] | TEAE: GGT increased, maximal CTCAE grade G3 [1] | TEAE: GGT increased, maximal CTCAE grade G4 [1] | TEAE: GGT increased, maximal CTCAE grade G5 [1] | TEAE: LDH increased, maximal CTCAE grade G2 [1] | TEAE: LDH increased, maximal CTCAE grade G3 [1] | TEAE: LDH increased, maximal CTCAE grade G4 [1] | TEAE: LDH increased, maximal CTCAE grade G5 [1]
1 (8.3%) n (%): TEAE: AST increased, maximal CTCAE grade G2 [1] | TEAE: Blood albumin decreased [1] | TEAE: GGT increased, maximal CTCAE grade G2 [1] | TEAE: Platelet count decreased [1] | TEAE: Sinus tachycardia [1] | TEAE: Urine protein present [1]
11 (91.7%) n (%): At least one TRAE [1]
